{
  "source": "patent US20240131204A1",
  "about": "“Fractionated Dosing of a Phospholipid Ether Analog for the Treatment of Cancer” (Cellectar Biosciences, Inc., priority 2019, published 2024)",
  "key": {"[1]": {"test_system": "OPM-2 cell line (human multiple myeloma)", "assay": "OPM-2 multiple myeloma subcutaneous xenograft in CB17 SCID mice (tumor volume, doubling time, survival, body weight)", "format": "in vivo", "conditions": "for tolerability: repeated/fractionated dosing versus the single equal dose", "procedure": "The OPM-2 cell line (human multiple myeloma) was purchased from American Type Culture Collection (ATCC, Rockville, MD) and maintained in McCoy's 5a media supplemented with 10% fetal bovine serum. Female CB17 SCID mice approximately 5-7 weeks of age were injected subcutaneously with 1×10^7 viable cells (in ˜100 μL Dulbecco's PBS) into the right flank. The study was initiated when tumor size had reached a pre-determined size (approximately 150-200 mm3). The mice were given potassium iodide at a concentration of 0.1% in their drinking water to block possible free iodide in the drug formulation three days prior to injection and continuing through two weeks post-injection. Mice were randomly assigned to dose groups. Tumor volume was measured with a caliper during the course of the study. Tumor doubling time calculation TDT=D×log(2)/log(1+r/100), where D equals days between measurements and r=rate of growth; r/100=(V2−V1/V1)×100%. Statistical analysis: 1-way Anova, Dunnett's test."}, "[2]": {"test_system": "xenograft, orthotopic and transgenic cancer and cancer stem cell derived animal models", "assay": "Tumor selectivity, uptake and retention in animal tumor models", "format": "in vivo", "conditions": "variety of tumor models"}, "[3]": {"test_system": "xenograft, orthotopic and transgenic cancer and cancer stem cell derived animal models", "conditions": "radioiodinated CLR1404; cited from earlier work"}, "[4]": {"assay": "Clinical trial: single bolus dose (Cohort 4) versus fractionated dose (Cohort 5)", "format": "in vivo, human", "procedure": "Dosing is based upon body surface area or BSA in millicuries/meter squared (mCi/m^2). Patients either received a single 30 minute infusion of 31.25 mCi/m^2 on day 1 or a 30 minute fractionated infusion dose of 15.625 mCi/m^2 on day 1 and then repeated on day 8."}},
  "data": [
    {"compound": "C[N+](C)(C)CCOP(=O)([O-])OCCCCCCCCCCCCCCCCCCc1ccc(I)cc1", "note": "[CLR1404]", "values": [
      {"measurement": "tolerability", "setting": "[1]", "value": "well tolerated and is better tolerated than a single equal dose"},
      {"measurement": "sequestration and retention by cancer cells and cancer stem cells", "setting": "[2]", "value": "sequestered and selectively retained"},
      {"measurement": "tumor selectivity (models showing it / models tested)", "setting": "[3]", "value": "55/60"}
    ]},
    {"compound": "^131I-labeled 18-(p-iodo-phenyl)octadecyl phosphocholine [CLR 131]", "values": [
      {"measurement": "antitumor activity", "setting": "[1]; all doses, model of multiple myeloma", "value": "marked antitumor activity"},
      {"measurement": "survival", "setting": "[1]; fractionated dosing", "value": "statistically significant survival benefit"},
      {"measurement": "tumor doubling time", "setting": "[1]; fractionated dosing versus all other treatments", "value": "markedly increased"},
      {"measurement": "reduction in tumor volume vs control", "setting": "[1]; fractionated dosing, after day 26", "value": "statistically significant reduction"},
      {"measurement": "reduction in tumor volume vs all other treatments", "setting": "[1]; fractionated dosing, day 52, p<0.05", "value": "statistically significant reduction"},
      {"measurement": "tolerability", "setting": "[1]", "value": "well tolerated and better tolerated than the single equal dose"},
      {"measurement": "average reduction in surrogate markers of efficacy", "setting": "[4]; fractionated dose (Cohort 5)", "value": 40, "unit": "%"},
      {"measurement": "average progression free survival", "setting": "[4]; fractionated dose (Cohort 5), assessment ongoing", "value": 2.9, "unit": "months"},
      {"measurement": "median overall survival", "setting": "[4]; fractionated dose, 15.625 mCi/m^2 on day 1 and day 8 (Cohort 5), assessment still ongoing", "value": 7.4, "unit": "months"},
      {"measurement": "average progression free survival", "setting": "[4]; single bolus dose (Cohort 4)", "value": 2.8, "unit": "months"},
      {"measurement": "average reduction in surrogate markers of efficacy", "setting": "[4]; single bolus dose (Cohort 4)", "value": 29, "unit": "%"},
      {"measurement": "median overall survival", "setting": "[4]; single bolus dose, 31.25 mCi/m^2 on day 1 (Cohort 4)", "value": 6.5, "unit": "months"}
    ]}
  ]
}
